Measurements published in US10227323B2, “Glucosylceramide synthase inhibitors for the treatment of diseases” (BIOMARIN PHARMACEUTICAL INC., priority 2013, dated 2019).

Target: T1, GCS (Canis lupus familiaris, UniProt A0A8I3MXG6)
T1 sequence (A0A8I3MXG6 1-394): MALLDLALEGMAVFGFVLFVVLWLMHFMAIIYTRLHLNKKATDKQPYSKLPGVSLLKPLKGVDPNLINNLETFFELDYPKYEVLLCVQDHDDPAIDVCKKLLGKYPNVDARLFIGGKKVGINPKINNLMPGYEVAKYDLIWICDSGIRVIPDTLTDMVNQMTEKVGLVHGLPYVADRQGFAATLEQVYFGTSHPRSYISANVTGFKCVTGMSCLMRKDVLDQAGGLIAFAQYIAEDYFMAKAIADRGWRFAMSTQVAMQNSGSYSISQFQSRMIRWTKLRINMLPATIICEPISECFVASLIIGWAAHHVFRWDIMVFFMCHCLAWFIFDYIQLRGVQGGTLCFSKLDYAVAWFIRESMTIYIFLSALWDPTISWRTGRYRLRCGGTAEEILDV
Assay: Assay 1: GCS Enzymatic Assay (MDCK cell lysate, C6-NBD-Ceramide, LC/MS)
Assay type: biochemical, canine
Details: Table 2; for IC50: data without asterisk, read-out: IC50 (nM) generated from Assay 1
In short: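 LC/MS/MS measurement of glucosylceramide and NBD-ceramide after a 1 h, 37 °C reaction with 100 μM UDP-glucose and 10 μM C6-NBD-ceramide gave IC50s or percent inhibition.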

Row | Compound | IC50 [nM] | % inhibition generated from Assay 1 (data marked by *)
1 | COc1c(F)cc([C@@H](O)[C@@H](CN2CCCC2)NC(=O)C(=O)c2ccc(-c3ccc(F)cc3)cc2)cc1OC(C)C [Compound 361, N-((1R,2R)-1-(3-fluoro-5-isopropoxy-4-methoxyphenyl)-1-hydroxy-3-(pyrrolidin-1-yl)propan-2-yl)-2-(4′-fluoro-[1,1′-biphenyl]-4-yl)-2-oxoacetamide] | 50 to 5000 | –
2 | CC1(C)COc2c(F)cc([C@@H](O)[C@@H](CN3CCCC3)NC(=O)C(=O)c3ccc(-c4ccc(F)cc4)cc3)cc2O1 [Compound 362, N-((1R,2R)-1-(8-fluoro-3,3-dimethyl-2,3-dihydrobenzo[b][1,4]dioxin-6-yl)-1-hydroxy-3-(pyrrolidin-1-yl)propan-2-yl)-2-(4′-fluoro-[1,1′-biphenyl]-4-yl)-2-oxoacetamide] | < 50 | –
3 | O=C(N[C@H](CN1CCCC1)[C@H](O)c1ccc(OC2CC2)c(Cl)c1)C(=O)c1ccc(-c2ccc(Cl)s2)cc1 [Compound 363, N-((1R,2R)-1-(3-chloro-4-cyclopropoxyphenyl)-1-hydroxy-3-(pyrrolidin-1-yl)propan-2-yl)-2-(4-(5-chlorothiophen-2-yl)phenyl)-2-oxoacetamide] | < 50 | –
4 | COc1c(F)cc([C@@H](O)[C@@H](CN2CCCC2)NC(=O)C(=O)c2cc3ccc(Cl)cc3s2)cc1OC(C)C [Compound 364, 2-(6-chlorobenzo[b]thiophen-2-yl)-N-((1R,2R)-1-(3-fluoro-5-isopropoxy-4-methoxyphenyl)-1-hydroxy-3-(pyrrolidin-1-yl)propan-2-yl)-2-oxoacetamide] | 50 to 5000 | –
5 | O=C(N[C@H](CN1CCCC1)[C@H](O)c1ccc(OC2CC2)c(Cl)c1)C(=O)c1cc2ccc(Cl)cc2o1 [Compound 365, N-((1R,2R)-1-(3-chloro-4-cyclopropoxyphenyl)-1-hydroxy-3-(pyrrolidin-1-yl)propan-2-yl)-2-(6-chlorobenzofuran-2-yl)-2-oxoacetamide] | < 50 | –
6 | O=C(N[C@H](CN1CCCC1)[C@H](O)c1cc(F)c2c(c1)OCCO2)C(=O)c1cc2ccc(Cl)cc2o1 [Compound 366, 2-(6-chlorobenzofuran-2-yl)-N-((1R,2R)-1-(8-fluoro-2,3-dihydrobenzo[b][1,4]dioxin-6-yl)-1-hydroxy-3-(pyrrolidin-1-yl)propan-2-yl)-2-oxoacetamide] | < 50 | –
7 | O=C(N[C@H](CN1CCCC1)[C@H](O)c1ccc(OC2CC2)c(Cl)c1)C(=O)c1ccc(N2CCOCC2)cc1 [Compound 368, N-((1R,2R)-1-(3-chloro-4-cyclopropoxyphenyl)-1-hydroxy-3-(pyrrolidin-1-yl)propan-2-yl)-2-(4-morpholinophenyl)-2-oxoacetamide] | < 50 | –
8 | O=C(N[C@H](CN1CCC1)[C@H](O)c1cc(F)c2c(c1)OCCO2)C(=O)c1ccc(N2CCOCC2)cc1 [Compound 369, N-((1R,2R)-3-(azetidin-1-yl)-1-(8-fluoro-2,3-dihydrobenzo[b][1,4]dioxin-6-yl)-1-hydroxypropan-2-yl)-2-(4-morpholinophenyl)-2-oxoacetamide] | < 50 | –
9 | O=C(N[C@H](CN1CCCC1)[C@H](O)c1ccc(OC2CC2)c(Cl)c1)C(=O)c1ccc(-c2ccc(C3CC3)cc2)cc1 [Compound 370, N-((1R,2R)-1-(3-chloro-4-cyclopropoxyphenyl)-1-hydroxy-3-(pyrrolidin-1-yl)propan-2-yl)-2-(4′-cyclopropyl-[1,1′-biphenyl]-4-yl)-2-oxoacetamide] | < 50 | –
10 | O=C(N[C@H](CN1CCCC1)[C@H](O)c1cc(F)c2c(c1)OCCO2)C(=O)c1ccc(-c2ccc(C3CC3)cc2)cc1 [Compound 371, 2-(4′-cyclopropyl-[1,1′-biphenyl]-4-yl)-N-((1R,2R)-1-(8-fluoro-2,3-dihydrobenzo[b][1,4]dioxin-6-yl)-1-hydroxy-3-(pyrrolidin-1-yl)propan-2-yl)-2-oxoacetamide] | < 50 | –
11 | O=C(N[C@H](CN1CCCC1)[C@H](O)c1ccc(OC2CC2)c(Cl)c1)C(=O)c1ccc(C2CCOCC2)cc1 [Compound 372, N-((1R,2R)-1-(3-chloro-4-cyclopropoxyphenyl)-1-hydroxy-3-(pyrrolidin-1-yl)propan-2-yl)-2-oxo-2-(4-(tetrahydro-2H-pyran-4-yl)phenyl)acetamide] | < 50 | –
12 | O=C(N[C@H](CN1CCCC1)[C@H](O)c1cc(F)c2c(c1)OCCO2)C(=O)c1ccc(C2CCOCC2)cc1 [Compound 373, N-((1R,2R)-1-(8-fluoro-2,3-dihydrobenzo[b][1,4]dioxin-6-yl)-1-hydroxy-3-(pyrrolidin-1-yl)propan-2-yl)-2-oxo-2-(4-(tetrahydro-2H-pyran-4-yl)phenyl)acetamide] | < 50 | –
13 | O=C(N[C@H](CN1CCCC1)[C@H](O)c1ccc(OC2CC2)cc1)C(=O)c1ccc(N2CCOCC2)cc1 [Compound 374, N-((1R,2R)-1-(4-cyclopropoxyphenyl)-1-hydroxy-3-(pyrrolidin-1-yl)propan-2-yl)-2-(4-morpholinophenyl)-2-oxoacetamide] | 50 to 5000 | –
14 | O=C(N[C@H](CN1CCCC1)[C@H](O)c1ccc(OC2CC2)c(Cl)c1)C(=O)c1ccc(N2CCC2)cc1 [Compound 375, 2-(4-(azetidin-1-yl)phenyl)-N-((1R,2R)-1-(3-chloro-4-cyclopropoxyphenyl)-1-hydroxy-3-(pyrrolidin-1-yl)propan-2-yl)-2-oxoacetamide] | 50 to 5000 | –
15 | O=C(N[C@H](CN1CCCC1)[C@H](O)c1ccc(OC2CC2)c(Cl)c1)C(=O)c1ccc(F)cc1 [Compound 376, N-((1R,2R)-1-(3-chloro-4-cyclopropoxyphenyl)-1-hydroxy-3-(pyrrolidin-1-yl)propan-2-yl)-2-(4-fluorophenyl)-2-oxoacetamide] | < 50 | –
16 | O=C(N[C@H](CN1CCCC1)[C@H](O)c1ccc(OC2CC2)c(Cl)c1)C(=O)c1cc2ccccc2s1 [Compound 377, 2-(benzo[b]thiophen-2-yl)-N-((1R,2R)-1-(3-chloro-4-cyclopropoxyphenyl)-1-hydroxy-3-(pyrrolidin-1-yl)propan-2-yl)-2-oxoacetamide] | < 50 | –
17 | C#Cc1ccc(C(=O)C(=O)N[C@H](CN2CCCC2)[C@H](O)c2ccc(OC3CC3)c(F)c2)cc1 [Compound 378, N-((1R,2R)-1-(4-cyclopropoxy-3-fluorophenyl)-1-hydroxy-3-(pyrrolidin-1-yl)propan-2-yl)-2-(4-ethynylphenyl)-2-oxoacetamide] | < 50 | –
18 | O=C(N[C@H](CN1CCCC1)[C@H](O)c1cc(F)c2c(c1)OCCO2)C(=O)c1ccc(F)cc1 [Compound 379, N-((1R,2R)-1-(8-fluoro-2,3-dihydrobenzo[b][1,4]dioxin-6-yl)-1-hydroxy-3-(pyrrolidin-1-yl)propan-2-yl)-2-(4-fluorophenyl)-2-oxoacetamide] | < 50 | –
19 | O=C(N[C@H](CN1CCCC1)[C@H](O)c1ccc(OC2CC2)c(Cl)c1)C(=O)C1CCN(c2ccc(F)cc2)CC1 [Compound 380, N-((1R,2R)-1-(3-chloro-4-cyclopropoxyphenyl)-1-hydroxy-3-(pyrrolidin-1-yl)propan-2-yl)-2-(1-(4-fluorophenyl)piperidin-4-yl)-2-oxoacetamide] | 50 to 5000 | –
20 | O=C(N[C@H](CN1CCC1)[C@H](O)c1ccc(OC2CC2)c(F)c1)C(=O)c1cc2ccc(Cl)cc2s1 [Compound 381, N-((1R,2R)-3-(azetidin-1-yl)-1-(4-cyclopropoxy-3-fluorophenyl)-1-hydroxypropan-2-yl)-2-(6-chlorobenzo[b]thiophen-2-yl)-2-oxoacetamide] | < 50 | –
21 | CN(C(=O)C(=O)c1ccc(-c2ccc(F)cc2)cc1)[C@H](CN1CCCC1)[C@H](O)c1ccc(OC2CC2)c(F)c1 [Compound 382, N-((1R,2R)-1-(4-cyclopropoxy-3-fluorophenyl)-1-hydroxy-3-(pyrrolidin-1-yl)propan-2-yl)-2-(4′-fluoro-[1,1′-biphenyl]-4-yl)-N-methyl-2-oxoacetamide] | < 50 | –
22 | CN(C(=O)C(=O)c1cc2ccc(Cl)cc2s1)[C@H](CN1CCCC1)[C@H](O)c1ccc(OC2CC2)c(F)c1 [Compound 383, 2-(6-chlorobenzo[b]thiophen-2-yl)-N-((1R,2R)-1-(4-cyclopropoxy-3-fluorophenyl)-1-hydroxy-3-(pyrrolidin-1-yl)propan-2-yl)-N-methyl-2-oxoacetamide] | < 50 | –
23 | CC(C)n1ncc2cc(-c3ccc(C(=O)C(=O)N[C@H](CN4CCCC4)[C@H](O)c4ccc(OC5CC5)c(Cl)c4)cc3)ccc21 [Example 258, N-((1R,2R)-1-(3-chloro-4-cyclopropoxyphenyl)-1-hydroxy-3-(pyrrolidin-1-yl)propan-2-yl)-2-(4-(1-isopropyl-1H-indazol-5-yl)phenyl)-2-oxoacetamide] | < 50 | –
24 | CC(C)n1cc2cc(-c3ccc(C(=O)C(=O)N[C@H](CN4CCCC4)[C@H](O)c4ccc(OC5CC5)c(Cl)c4)cc3)ccc2n1 [Example 259, N-((1R,2R)-1-(3-chloro-4-cyclopropoxyphenyl)-1-hydroxy-3-(pyrrolidin-1-yl)propan-2-yl)-2-(4-(2-isopropyl-2H-indazol-5-yl)phenyl)-2-oxoacetamide] | < 50 | –
25 | Cn1ncc2ccc(-c3cccc(C(=O)C(=O)N[C@H](CN4CCCC4)[C@H](O)c4ccc(OC5CC5)c(Cl)c4)c3)cc21 [Example 261, N-((1R,2R)-1-(3-chloro-4-cyclopropoxyphenyl)-1-hydroxy-3-(pyrrolidin-1-yl)propan-2-yl)-2-(3-(1-methyl-1H-indazol-6-yl)phenyl)-2-oxoacetamide] | – | A* (the compound had a % inhibition of a percent inhibition of greater than or equal to about 50%)
